Numbers after ± are expanded uncertainties.
Conditions: Liquid, Ebulliometric method (Recirculating still)

SMILES: FC(C(F)(F)F)C(F)(F)F [1,1,1,2,3,3,3-heptafluoropropane]
- vapor or sublimation pressure (263.15 K): 132.4 ± 1.2 kPa
- vapor or sublimation pressure (278.15 K): 235.2 ± 1.2 kPa
- vapor or sublimation pressure (293.15 K): 389.4 ± 1.2 kPa
- vapor or sublimation pressure (308.15 K): 608.3 ± 1.2 kPa
- vapor or sublimation pressure (323.15 K): 912.1 ± 1.2 kPa

SMILES: FC(F)C(F)(F)F [pentafluoroethane]
- vapor or sublimation pressure (263.15 K): 482.4 ± 1.2 kPa
- vapor or sublimation pressure (278.15 K): 782.1 ± 1.2 kPa
- vapor or sublimation pressure (293.15 K): 1205.6 ± 1.3 kPa
- vapor or sublimation pressure (308.15 K): 1773.2 ± 1.3 kPa
- vapor or sublimation pressure (323.15 K): 2531.1 ± 1.3 kPa

SMILES: CCC [propane]
- vapor or sublimation pressure (263.15 K): 345.9 ± 1.2 kPa
- vapor or sublimation pressure (278.15 K): 552.7 ± 1.2 kPa
- vapor or sublimation pressure (293.15 K): 839.7 ± 1.2 kPa
- vapor or sublimation pressure (308.15 K): 1217.2 ± 1.2 kPa
- vapor or sublimation pressure (323.15 K): 1714.5 ± 1.3 kPa
